Results as given in US20240368173A1, “TRICYCLIC GPR65 MODULATORS” (PATHIOS THERAPEUTICS LIMITED, priority 2021, published 2024).

These compounds were tested against human recombinant GPR65 (Homo sapiens, UniProt Q8IYL9) (assay: Human GPR65 cAMP HTRF antagonist assay). Conditions: not given.
Sequence of human recombinant GPR65 (Q8IYL9 whole entry): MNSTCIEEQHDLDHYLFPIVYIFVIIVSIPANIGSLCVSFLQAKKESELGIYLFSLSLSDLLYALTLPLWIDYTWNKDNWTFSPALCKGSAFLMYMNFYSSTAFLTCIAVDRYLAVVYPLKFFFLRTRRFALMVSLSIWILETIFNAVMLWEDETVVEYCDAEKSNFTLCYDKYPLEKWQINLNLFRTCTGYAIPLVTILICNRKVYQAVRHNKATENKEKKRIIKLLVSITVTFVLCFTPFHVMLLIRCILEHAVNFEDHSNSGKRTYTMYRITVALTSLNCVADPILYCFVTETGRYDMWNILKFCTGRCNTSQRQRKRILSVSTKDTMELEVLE
Format: cell-based
Outline: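 Antagonism measured as suppression of the cAMP rise when pH is dropped to 7.2 (control wells pH 7.9) in 1321N1 cells stably carrying human GPR65. Cells in KRH with 1 mM IBMX and 200 μM EDTA saw compound 30 min, then acid stimulation 30 min; HTRF cAMP detection, normalised, 4-parameter logistic IC50.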
Work on `O=C(Nc1cc(Cl)c(-c2ccc(OC3CC(F)(F)C3)nc2)cc1F)N1[C@H]2CC[C@@H]1c1n[nH]c(=O)cc1C2` [Compound 292, (6S,9R)-N-(5-Chloro-4-(6-(3,3-difluorocyclobutoxy)pyridin-3-yl)-2-fluorophenyl)-3-oxo-3,5,6,7,8,9-hexahydro-2H-6,9-epiminocyclohepta[c]pyridazine-10-carboxamide] yielded an IC50 of less than 500 nM.
For `COc1ccc(-c2cc(F)c(NC(=O)N3[C@H]4CC[C@@H]3c3ccnc(F)c3C4)cc2Cl)cn1` [Compound 185, (5R,8S)-N-(5-Chloro-2-fluoro-4-(6-methoxypyridin-3-yl)phenyl)-1-fluoro-6,7,8,9-tetrahydro-5H-5,8-epiminocyclohepta[c]pyridine-10-carboxamide], the IC50 was less than 500 nM.
`O=C(Nc1cc(Br)c(C(F)(F)F)cc1F)N1[C@H]2CC[C@@H]1c1c[nH]c(=O)nc1C2` [Compound 28, (5R,8S)-N-(5-Bromo-2-fluoro-4-(trifluoromethyl)phenyl)-2-oxo-3,5,6,7,8,9-hexahydro-2H-5,8-epiminocyclohepta[d]pyrimidine-10-carboxamide] gave an IC50 of less than 500 nM.
Work on `O=C(Nc1ccc(C2CC2)c(Cl)c1)N1[C@H]2CC[C@@H]1c1ccnc(F)c1C2` [Compound 59, (5R,8S)-N-(3-Chloro-4-cyclopropylphenyl)-1-fluoro-6,7,8,9-tetrahydro-5H-5,8-epiminocyclohepta[c]pyridine-10-carboxamide] yielded an IC50 of less than 500 nM.
`COc1cnc(F)c2c1[C@H]1CC[C@@H](C2)N1C(=O)Nc1cc(Cl)c(C(F)(F)F)cc1F` [Compound 97, (5R,8S)-N-(5-Chloro-2-fluoro-4-(trifluoromethyl)phenyl)-1-fluoro-4-methoxy-6,7,8,9-tetrahydro-5H-5,8-epiminocyclohepta[c]pyridine-10-carboxamide] was tested, and the IC50 was less than 500 nM.
`O=C(Nc1cc(Cl)c(-c2ccnc3[nH]ccc23)cc1F)N1[C@H]2CC[C@@H]1c1n[nH]c(=O)cc1C2` [Compound 148, (6S,9R)-N-(5-Chloro-2-fluoro-4-(1H-pyrrolo[2,3-b]345yridine-4-yl)phenyl)-3-oxo-3,5,6,7,8,9-hexahydro-2H-6,9-epiminocyclohepta[c]pyridazine-10-carboxamide] was tested, and the IC50 was 500 to 5000 nM.
In the case of `O=C(Nc1ccc(-c2ccsc2)cc1)N1[C@H]2CC[C@@H]1c1ccnc(F)c1C2` [Compound 55, (5R,8S)-1-Fluoro-N-(4-(thiophen-3-yl)phenyl)-6,7,8,9-tetrahydro-5H-5,8-epiminocyclohepta[c]pyridine-10-carboxamide], the IC50 is reported as less than 500 nM.
For `O=C(Nc1cc(Cl)c(C(F)(F)F)cc1F)N1[C@H]2CC[C@@H]1c1n[nH]c(=O)cc1C2` [Compound 18, (6S,9R)-N-(5-Chloro-2-fluoro-4-(trifluoromethyl)phenyl)-3-oxo-3,5,6,7,8,9-hexahydro-2H-6,9-epiminocyclohepta[c]pyridazine-10-carboxamide], the IC50 was less than 500 nM.
In the case of `Cc1nc2cc(-c3cc(F)c(NC(=O)N4[C@H]5CC[C@@H]4c4n[nH]c(=O)cc4C5)cc3Cl)ccc2o1` [Compound 234, (6S,9R)-N-(5-Chloro-2-fluoro-4-(2-methylbenzo[d]oxazol-5-yl)phenyl)-3-oxo-3,5,6,7,8,9-hexahydro-2H-6,9-epiminocyclohepta[c]pyridazine-10-carboxamide], the IC50 is reported as less than 500 nM.
`COc1cnccc1-c1cc(F)c(NC(=O)N2[C@H]3CC[C@@H]2c2ccnc(F)c2C3)cc1Cl` [Compound 297, (5R,8S)-N-(5-Chloro-2-fluoro-4-(3-methoxypyridin-4-yl)phenyl)-1-fluoro-6,7,8,9-tetrahydro-5H-5,8-epiminocyclohepta[c]pyridine-10-carboxamide] gave an IC50 of less than 500 nM.
In the case of `CCOc1ccc(-c2cc(F)c(NC(=O)N3[C@H]4CC[C@@H]3c3n[nH]c(=O)cc3C4)cc2Cl)cn1` [Compound 208, (6S,9R)-N-(5-Chloro-4-(6-ethoxypyridin-3-yl)-2-fluorophenyl)-3-oxo-3,5,6,7,8,9-hexahydro-2H-6,9-epiminocyclohepta[c]pyridazine-10-carboxamide], the IC50 is reported as less than 500 nM.
`O=C(Nc1cc(Cl)c(-c2ccc3nonc3c2)cc1F)N1[C@H]2CC[C@@H]1c1c[nH]c(=O)cc1C2` [Compound 167, (6S,9R)-N-(4-(Benzo[c][1,2,5]oxadiazol-5-yl)-5-chloro-2-fluorophenyl)-3-oxo-3,5,6,7,8,9-hexahydro-2H-6,9-epiminocyclohepta[c]pyridine-10-carboxamide] gave an IC50 of less than 500 nM.
With `O=C(Nc1cc(C(F)(F)F)on1)N1[C@H]2CC[C@@H]1c1n[nH]c(=O)cc1C2` [Compound 110, (6S,9R)-3-Oxo-N-(5-(trifluoromethyl)isoxazol-3-yl)-3,5,6,7,8,9-hexahydro-2H-6,9-epiminocyclohepta[c]pyridazine-10-carboxamide] the IC50 was less than 500 nM.
Compound `CC(C)COc1ccc(-c2cc(F)c(NC(=O)N3[C@H]4CC[C@@H]3c3n[nH]c(=O)cc3C4)cc2Cl)cn1` [Compound 319, (6S,9R)-N-(5-Chloro-2-fluoro-4-(6-isobutoxypyridin-3-yl)phenyl)-3-oxo-3,5,6,7,8,9-hexahydro-2H-6,9-epiminocyclohepta[c]pyridazine-10-carboxamide] has an IC50 of less than 500 nM.
In the case of `Cc1cnccc1-c1cc(F)c(NC(=O)N2[C@H]3CC[C@@H]2c2n[nH]c(=O)cc2C3)cc1Cl` [Compound 125, (6S,9R)-N-(5-Chloro-2-fluoro-4-(3-methylpyridin-4-yl)phenyl)-3-oxo-3,5,6,7,8,9-hexahydro-2H-6,9-epiminocyclohepta[c]pyridazine-10-carboxamide], the IC50 is reported as less than 500 nM.
Compound `O=C(Nc1cc(Cl)c(-c2ccc3cnoc3c2)cc1F)N1[C@H]2CC[C@@H]1c1n[nH]c(=O)cc1C2` [Compound 196, (6S,9R)-N-(4-(Benzo[d]isoxazol-6-yl)-5-chloro-2-fluorophenyl)-3-oxo-3,5,6,7,8,9-hexahydro-2H-6,9-epiminocyclohepta[c]pyridazine-10-carboxamide] has an IC50 of 500 to 5000 nM.
Work on `O=C(Nc1cc(Cl)c(COc2ccc3nonc3c2)cc1F)N1[C@H]2CC[C@@H]1c1n[nH]c(=O)cc1C2` [Compound 302, (6S,9R)-N-(4-((Benzo[c][1,2,5]oxadiazol-5-yloxy)methyl)-5-chloro-2-fluorophenyl)-3-oxo-3,5,6,7,8,9-hexahydro-2H-6,9-epiminocyclohepta[c]pyridazine-10-carboxamide] yielded an IC50 of less than 500 nM.
`O=C(Nc1cc(Cl)c(-c2ccc(OC3COC3)nc2)cc1F)N1[C@H]2CC[C@@H]1c1n[nH]c(=O)cc1C2` [Compound 275, (6S,9R)-N-(5-Chloro-2-fluoro-4-(6-(oxetan-3-yloxy)pyridin-3-yl)phenyl)-3-oxo-3,5,6,7,8,9-hexahydro-2H-6,9-epiminocyclohepta[c]pyridazine-10-carboxamide] showed an IC50 of less than 500 nM.

Same assay, conditions: 1321N1-hrGPR65 cells, cAMP HTRF, assay pH 7.2; read-out: hGPR65 IC50 (Activity of selected compounds according to the invention)
Compound `O=C(Nc1cc(Cl)c(C(F)(F)F)cn1)N1C2CCC1c1n[nH]c(=O)cc1C2` (racemic) [Compound 12, (±)-N-(4-Chloro-5-(trifluoromethyl)pyridin-2-yl)-3-oxo-3,5,6,7,8,9-hexahydro-2H-6,9-epiminocyclohepta[c]pyridazine-10-carboxamide] has an IC50 of 500 to 5000 nM.
For `N#Cc1cnc(NC(=O)N2C3CCC2c2n[nH]c(=O)cc2C3)cc1Cl` (racemic) [Compound 43, (±)-N-(4-Chloro-5-cyanopyridin-2-yl)-3-oxo-3,5,6,7,8,9-hexahydro-2H-6,9-epiminocyclohepta[c]pyridazine-10-carboxamide], the IC50 was 500 to 5000 nM.
